The subject of series [1] is HER2 high-expressing cancer cells NCI-N87. Briefly: Cytotoxicity assay (CellTiter-Glo cell viability), NCI-N87. Type of series: cell-based, human. The conditions noted are these: for IC50: Homo sapiens, NCI-N87, 96 h, 96 h treatment. As to the method: (§1) Cytotoxicity assays were performed using HER2 high-expressing cancer cells NCI-N87 (FIG. 1) and SK-BR-3 (FIG. 2), as well as a HER2 negative cell line MDA-MB-468 (FIG. 3) to analyze the effect of conjugates on tumor cell proliferation. The tested articles included conjugates EC302-2-4-1-1 and EC301-2-1-1-1, and a small molecule eribulin (structure is depicted above). In brief, 5000 cells were plated in 96-well plates, and cells were able to attach overnight. Cells were treated with indicated drugs with various concentrations for 96 h. Cell viabilities were examined by CellTiter-Glo® Luminescent Cell Viability Assay, and percentage of cell viability was calculated.
(§2) Cytotoxicity assays were performed using HER2 high-expressing cancer cells NCI-N87 (FIG. 4) and SK-BR-3 (FIG. 5), as well as a HER2 negative cell line MDA-MB-468 (FIG. 6) to analyze the effect of conjugates on tumor cell proliferation. […] In brief, 5000 cells were plated in 96-well plates, and cells were able to attach overnight. Cells were treated with indicated drugs with various concentrations for 96 h. Cell viabilities were examined by CellTiter-Glo® Luminescent Cell Viability Assay, and percentage of cell viability was calculated.

Series [2] deals with FGFR3 high-expressing cancer cells RT112/84. The series can be described thus: Cytotoxicity assay (CellTiter-Glo cell viability), RT112/84. Type of series: cell-based. To be noted: RT112/84, FGFR3-positive; 96 h. The method, then:
(§3) Cytotoxicity assays were performed using FGFR3 high-expressing cancer cells RT112/84 and RT4, FGFR3 negative cancer cell MCF-7 (FIG. 7) to analyze the effect of conjugates on tumor cell proliferation. The tested articles included conjugate EC302-2-4-1-2, and a small molecule eribulin (structure is depicted above). In brief, 2000 cells (RT112/84) or 5000 cells (RT4 or MCF-7) were plated in 96-well plates, and cells were able to attach overnight. Cells were treated with indicated drugs with various concentrations for 96 h. Cell viabilities were examined by CellTiter-Glo® Luminescent Cell Viability Assay, and percentage of cell viability was calculated.
(In general: ATP-based viability assays read luminescence as a measure of living cells.)

Series [3] relates to HER2 high-expressing cancer cells SK-BR-3. The series can be described thus: Cytotoxicity assay (CellTiter-Glo cell viability), SK-BR-3. Type of series: cell-based. The conditions noted are these: for IC50: Homo sapiens, SK-BR-3, 96 h, 96 h treatment. The method, then: as §1, §2
The test system of series [4] is FGFR3 high-expressing cancer cells RT4. The series can be described thus: Cytotoxicity assay (CellTiter-Glo cell viability), RT4. The series is classed as cell-based. To be noted: RT4, FGFR3-positive; 96 h. The method, then:
as §3

Series [5] deals with HER2 negative cell line MDA-MB-468. Briefly: Cytotoxicity assay (CellTiter-Glo cell viability), MDA-MB-468. The series is classed as cell-based. To be noted: for IC50: Homo sapiens, MDA-MB-468, 96 h, 96 h treatment. As to the method: Cytotoxicity assays were performed using HER2 high-expressing cancer cells NCI-N87 (FIG. 1) and SK-BR-3 (FIG. 2), as well as a HER2 negative cell line MDA-MB-468 (FIG. 3) to analyze the effect of conjugates on tumor cell proliferation. […] In brief, 5000 cells were plated in 96-well plates, and cells were able to attach overnight. Cells were treated with indicated drugs with various concentrations for 96 h. Cell viabilities were examined by CellTiter-Glo® Luminescent Cell Viability Assay, and percentage of cell viability was calculated.
as §2

Series [6] relates to FGFR3 negative cancer cell MCF-7. Briefly: Cytotoxicity assay (CellTiter-Glo cell viability), MCF-7. To be noted: 96 h. Type of series: cell-based. As to the method:
as §3

Results on one compound are retold here after patent publication US20260077056A1, “LINKER-PAYLOAD COMPOUND, CONJUGATES AND APPLICATIONS THEREOF” (priority 2022, published 2026).

Molecules are shown by their SMILES.

With `C=C1C[C@@H]2CC[C@@]34C[C@H]5O[C@H]6[C@@H](O3)[C@H]3O[C@H](CC[C@@H]3O[C@H]6[C@H]5O4)CC(=O)C[C@@H]3[C@@H](OC)[C@@H](C[C@H](O)CN)O[C@H]3C[C@H]3O[C@@H](CC[C@@H]1O2)C[C@@H](C)C3=C` [Eribulin], the “cell proliferation-inhibitory effect, in words” value in series [1] (Effect Example 1, NCI-N87, HER2 high) is reported as “sensitive”; in series [3] (Effect Example 1, SK-BR-3, HER2 high) it was “sensitive”. For the same compound, the IC50 in series [1] (Effect Example 1, Table 4) was found to be 0.448 nM; in series [1] (Effect Example 2, Table 5), 0.501 nM; in series [3] (Effect Example 1, Table 4), 0.298 nM; in series [3] (Effect Example 2, Table 5), 0.211 nM; in series [5] (Effect Example 1, Table 4), 0.211 nM; in series [5] (Effect Example 2, Table 5) it was 0.094 nM. The “effect on cell proliferation, in words” value in series [2] and in series [4] was “sensitive” in each case. Besides, the “cytotoxicity, in words” value is given as “sensitive” in series [5] (Effect Example 1, MDA-MB-468, HER2 negative) and “sensitive” in series [6].

What is called IC50 is the midpoint of a concentration-inhibition curve. A high value points to lower potency.
